Patent US20030114504A1, “Compositions and methods for the treatment of cancer” (priority 2001, published 2003)

How the values were obtained:
in vivo = conditions: Balb/c nu/nu nude, mouse, in vivo
Protocol: (§1) In vivo Antitumor Testing
(§2) Paclitaxel was dissolved in a 50/50 mixture of ethanol and Cremophor® and stored at 4° C.; final dilution of paclitaxel was obtained immediately before drug administration with NaCl 0.9%. 5-FU was dissolved in normal saline (NaCl 0.9%). […] The volume of all compounds injected was 0.01 ml/g of mouse weight.
(§3) Solid Tumor Xenografts in Nude Mice.
(§4) All solid tumors were maintained in Balb/c nu/nu nude mice. Tumors were propagated as subcutaneous transplants using tumor fragments obtained from donor mice. All tumor implants for efficacy testing were subcutaneous (sc).
(§5) The required number of animals needed to detect a meaningful response were grouped at the start of the experiment and each was given a subcutaneous implant of a tumor fragment (˜50 mg) with a 13-gauge trocar. For treatment of early-stage tumors, the animals were again grouped before distribution to the various treatment and control groups. For treatment of animals with advanced-stage disease, tumors were allowed to grow to the pre-determined size window (animals with tumors outside the range were excluded) and animals were evenly distributed to various treatment and control groups. Treatment of each animal was based on individual body weight. Treated animals were checked daily for treatment related toxicity/mortality. Each group of animals was weighed before the initiation of treatment (Wt1) and then again following the last treatment dose (Wt2). The difference in body weight (Wt2-Wt1) provides a measure of treatment-related toxicity.
(§6) Tumor response was determined by measurement of tumors with a caliper twice a week, until the tumors reach a predetermined “target” size of 1 g. Tumor weights (mg) were estimated from the Formula: […]
(§7) Antitumor activity was evaluated at the maximum tolerated dose (MTD) which is defined as the dose level immediately […] which excessive toxicity (i.e. more than one death) occurred. […] When death occured, the day of death was recorded.
(§8) Tumor response end-point was expressed in terms of tumor growth delay (T-C value), defined as the difference in time (days) required for the treated tumors (T) to reach a predetermined target size compared to those of the control group ®.
(§9) To estimate tumor cell kill, the tumor volume doubling time (TVDT) was first calculated with the Formula:
(§10) TVDT=Median time (days) for control tumors to reach target size−Median time (days) for control tumors to reach half the target size

[1] = system: Colo205 human colon carcinoma; test: Colo205 xenograft in nude mice; conditions: for tumor regression: at MTD; for antitumor activity (in words): head-to-head at MTD
Protocol: as §1, §2, §3, §4, §5, §6, §7, §8, §9, §10

A2780S cells [2] = test: Inhibition of tumor cell proliferation in vitro, 72 hour treatment; type: cell-based; conditions: Homo sapiens
[3] = system: P388 mouse leukemia, Cyclin E transgenic mouse breast carcinoma, A2780, Colo205 and A431 tumor models; test: Multiple murine and human tumor models in vivo; parameters: species or system mice
From the text: The following tumors were used: A2780 human ovarian carcinoma, Br-cycE murine breast carcinoma, A431 human squamous cell carcinoma and Colo 205 colorectal carcinoma.
Compound 1 was compared head to head with flavopiridol in each of these models.

[4] = system: A2780 human ovarian carcinoma; test: A2780 xenograft in nude mice; type: in vivo
A2780S cells [5] = test: Cell cycle analysis by flow cytometry; type: cell-based, human; conditions: 170 nM
Protocol: Log phase A2780s cells were plated overnight in 6 well plates. […] Cells were harvested by trypsinization followed by centrifugation. Cell pellets were then resuspended by vortexing in 1 ml 80% methanol and fixed overnight at −20° C. Cells were recovered by centrifugation and washed two times with 1 ml of PBS. Cells were resuspended in 1 ml PBS, 2% FBS, 0.25% Triton X-100 and incubated at 4° C. for 10 minutes. Cells were again recovered by centrifugation and resuspended in 50 μl PBS, 2% FBS, 0.1% Triton X-100. Anti-Phospho-Threonine Proline antibody (IgM, New England Biolabs #9391S) was added and the cells were incubated for 30 minutes at 4° C. Cells were washed with PBS, 2% FBS, 0.1% Triton X-100 and resuspended in 50 μl PBS, 2% FBS, 0.1% Triton X-100. FITC-anti-Mouse antibody (Pharmingen #12064D) was added and incubated for 30 minutes at 4° C. in the dark. Cells were washed with PBS, 2% FBS, 0.1% Triton X-100 and resuspended in Propidium Iodide/RNase in PBS (10 μg/ml PI, 100 μg/ml RNase (DNase free)) and incubated at 37° C. for 30 minutes in the dark. Samples were analyzed using a flow cytometer.

[6] = system: PARP cleavage in A2780S cells; test: PARP cleavage by western blot; type: cell-based, human; conditions: 24 hour time point
Protocol: FIG. 3. […]. Protein extracts were then examined by western blot using an anti-PARP antibody (Clonetech). The arrow signifies caspase cleaved PARP protein fragment.
Compound treated A2780S cells were harvested at approximately 70% confluence and total protein was prepared by lysing the cells in RIPA [50 mM Tris (pH8), 150 mM NaCl, 1% NP-40, 0.5% Na-deoxycolate, 0.1% SDS, 0.1% Na3VO4, 0.1 mM NaF, 10 mM β-glycerophosphate, plus Complete® protease inhibitors (Boehringer Mannhiem)] buffer. Cell pellets were resuspended at a density of<2×10^7 cells/ml and incubated for 20 minutes on ice followed by a high speed 14,000 rpm centrifugation. The protein supernatant was then removed from the debris and protein content was quantitated using the Micro-BCA assay (Pierce). Treated extracts (25 microgram/lane) were then separated using a 10% SDS-polyacrylamide gel (10.5×14 cm). Proteins were then transferred from the gel to PVDF-membrane (Millipore) by exposure to […] in a semi-dry blotting apparatus (Hoeffer). PVDF protein blots were then blocked with 5% non-fat milk in TTBS (0.1% Tween 20 in Tris-buffered saline). […]. The blots were then washed three times with TTBS and developed with ECL-plus western blotting detection system (Amersham).

[7] = system: A2780 ovarian carcinoma cells; test: Clonogenic growth assay and drug combination studies; type: cell-based, human; conditions: clonogenic assays, single agent

CC(C)(C)c1cnc(CSc2cnc(NC(=O)C3CCNCC3)s2)o1 [Compound 1, N-[5-[[[5-(1,1-Dimethylethyl)-2-oxazolyl]methyl]thio]-2-thiazolyl]-4-piperidinecarboxamide]
MTD at 8 days (in vivo; ip): 36 mg/kg | log cell kill (LCK) ([1]; MTD of 36 mg/kg, IP, QD×8): > 2.0 LCK | tumor regression [1]: tumor regression | antitumor activity (in words) [1]: marked antitumor activity | IC90 (A2780S cells [2]): 170 nM | anti-tumor activity in vivo [3]: broad spectrum anti-tumor activity | schedule dependence of activity ([4]; IP): qdx8=qdx14>>>q2dx5=q4dx3 | efficacy ([4]; dosed IP, qdx8 schedule, multiple dose levels): curative efficacy | efficacy ([4]; dosed orally, qdx8 schedule): modest efficacy | efficacy ([4]; single 24 hour continuous infusion at the MTD): curative efficacy | % Apo (sub-G1 cells by DNA staining) (A2780S cells [5]; 8 hr. exposure): 6% | % G1 (A2780S cells [5]; 8 hr. exposure): 56% | % G2 (A2780S cells [5]; 8 hr. exposure): 22% | % M (A2780S cells [5]; 8 hr. exposure): 1% | % S (A2780S cells [5]; 8 hr. exposure): 15% | % Apo (sub-G1 cells by DNA staining) (A2780S cells [5]; 24 hr. exposure): 32 ± 12% | % G1 (A2780S cells [5]; 24 hr. exposure): 45% | % G2 (A2780S cells [5]; 24 hr. exposure): 9.7% | % M (A2780S cells [5]; 24 hr. exposure): 0.3% | % S (A2780S cells [5]; 24 hr. exposure): 8% | PARP cleavage (caspase activation) [6]: Extensive cleavage | drug exposure sufficient to elicit a maximal anti-proliferative response [7]: 8 h

O=c1[nH]cc(F)c(=O)[nH]1 [Compound 5-FU, 5-fluorouracil, reference compound]
tumor regression [1]: failed to achieve tumor regression | antitumor activity (in words) [1]: considerably less active

CC(=O)O[C@H]1C(=O)[C@@]2(C)[C@H]([C@H](OC(=O)c3ccccc3)[C@]3(O)C[C@H](OC(=O)[C@H](O)[C@@H](NC(=O)c4ccccc4)c4ccccc4)C(C)=C1C3(C)C)[C@]1(OC(C)=O)CO[C@@H]1C[C@@H]2O [Paclitaxel, paclitaxel, reference compound]
MTD (in vivo; iv): 36 mg/kg | antitumor activity (in words) [1]: comparable to Compound 1
